IC50 data for 19 molecules are collected here from patent US20260092073A1, “NOVEL COMPOUNDS” (Hoffmann-La Roche Inc., priority 2023, published 2026).

In experiment [1] the target is T1, NLRP3 (Homo sapiens, UniProt Q96P20). Put plainly: THP-1 cells pyroptosis assay. Set-up: Seed THP-1 cells (25,000 cells/well) containing 1.0 μg/ml LPS; host or cells: THP-1 cells, LPS-primed, nigericin-stimulated. The settings on record: LPS 1.0 μg/ml, nigericin 5 μM, resazurin readout. It counts as cell-based. From the text:
It is well established that the activation of NLRP3 leads to cell pyroptosis and this feature plays an important part in the manifestation of clinical disease (Yan-gang Liu et al., Cell Death & Disease, 2017, 8(2), e2579; Alexander Wree et al., Hepatology, 2014, 59(3), 898-910; Alex Baldwin et al., Journal of Medicinal Chemistry, 2016, 59(5), 1691-1710; Ema Ozaki et al., Journal of Inflammation Research, 2015, 8, 15-27; Zhen Xie & Gang Zhao, Neuroimmunology Neuroinflammation, 2014, 1(2), 60-65; Mattia Cocco et al., Journal of Medicinal Chemistry, 2014, 57(24), 10366-10382; T. Satoh et al., Cell Death & Disease, 2013, 4, e644). Therefore, it is anticipated that inhibitors of NLRP3 will block pyroptosis, as well as the release of pro-inflammatory cytokines (e.g. […]) from the cell.
THP-1 cells (ATCC #TIB-202) were grown in RPMI containing L-glutamine (Gibco #11835) supplemented with 1 mM sodium pyruvate (Sigma #S8636) and penicillin (100 units/ml)/streptomycin (0.1 mg/ml) (Sigma #P4333) in 10% Fetal Bovine Serum (FBS) (Sigma #F0804). The cells were routinely passaged and grown to confluency (˜10^6 cells/ml). On the day of the experiment, THP-1 cells were harvested and resuspended into RPMI medium (without FBS). The cells were then counted and viability (>90%) checked by Trypan blue (Sigma #T8154). Appropriate dilutions were made to give a concentration of 625,000 cells/ml. To this diluted cell solution was added LPS (Sigma #L4524) to give a […] Final Assay Concentration (FAC). 40 μl of the final preparation was aliquoted into each well of a 96-well plate. The plate thus prepared was used for compound screening.
The following method step-by-step assay was followed for compound screening.
Seed THP-1 cells (25,000 cells/well) containing 1.0 μg/ml LPS in 40 μl of RPMI medium (without FBS) in 96-well, black walled, clear bottom cell culture plates coated with poly-D-lysine (VWR #734-0317)
Add 5 μl compound (8 points half-log dilution, with 10 μM top dose) or vehicle (DMSO 0.1% FAC) to the appropriate wells
(§1) Incubate for 3 hours at 37° C., 5% CO2
Add 5 μl nigericin (Sigma #N7143) (FAC 5 μM) to all wells
(§2) Incubate for 1 hr at 37° C., 5% CO2
At the end of the incubation period, spin plates at 300 xg for 3 mins and remove supernatant
Then add 50 μl of resazurin (Sigma #R7017) (FAC 100 μM resazurin in RPMI medium without FBS) and incubate plates for a further 1-2 hours at 37° C. and 5% CO2
Plates were read in an Envision reader at Ex 560 nm and Em 590 nm
(§3) IC50 data is fitted to a non-linear regression equation (log inhibitor vs response-variable slope 4-parameters)

Experiment [2] deals with T1, NLRP3. Put plainly: Human whole blood IL-1β release assay. The experiment is classed as cell-based. Also on record: Human whole blood in Li-heparin tubes was obtained from healthy donors; from tissue; host or cells: human whole blood from healthy donors. The settings on record: LPS, nigericin 10 μM, IL-1β by AlphaLisa. The procedure: For systemic delivery, the ability to inhibit NLRP3 when the compounds are present within the bloodstream is of great importance. For this reason, the NLRP3 inhibitory activity of a number of compounds in human whole blood was investigated in accordance with the following protocol.
Human whole blood in Li-heparin tubes was obtained from healthy donors from a volunteer donor panel.
Plate out 80 μl of whole blood containing […] of LPS in 96-well, clear bottom cell culture plate (Corning #3585)
Add 10 μl compound (8 points half-log dilution with 10 μM top dose) or vehicle (DMSO 0.1% FAC) to the appropriate wells
as §1
Add 10 μl nigericin (Sigma #N7143) (10 μM FAC) to all wells
as §2
At the end of the incubation period, spin plates at 300 xg for 5 mins to pellet cells and remove 20 μl of supernatant and add to 96-well v-bottom plates for IL-1β analysis (note: these plates containing the supernatants can be stored at −80° C. to be analysed at a later date)
IL-1β was measured according to the manufacturer protocol (Perkin Elmer-AlphaLisa IL-1 Kit AL220F-5000)
as §3

T1 sequence (Q96P20 whole entry): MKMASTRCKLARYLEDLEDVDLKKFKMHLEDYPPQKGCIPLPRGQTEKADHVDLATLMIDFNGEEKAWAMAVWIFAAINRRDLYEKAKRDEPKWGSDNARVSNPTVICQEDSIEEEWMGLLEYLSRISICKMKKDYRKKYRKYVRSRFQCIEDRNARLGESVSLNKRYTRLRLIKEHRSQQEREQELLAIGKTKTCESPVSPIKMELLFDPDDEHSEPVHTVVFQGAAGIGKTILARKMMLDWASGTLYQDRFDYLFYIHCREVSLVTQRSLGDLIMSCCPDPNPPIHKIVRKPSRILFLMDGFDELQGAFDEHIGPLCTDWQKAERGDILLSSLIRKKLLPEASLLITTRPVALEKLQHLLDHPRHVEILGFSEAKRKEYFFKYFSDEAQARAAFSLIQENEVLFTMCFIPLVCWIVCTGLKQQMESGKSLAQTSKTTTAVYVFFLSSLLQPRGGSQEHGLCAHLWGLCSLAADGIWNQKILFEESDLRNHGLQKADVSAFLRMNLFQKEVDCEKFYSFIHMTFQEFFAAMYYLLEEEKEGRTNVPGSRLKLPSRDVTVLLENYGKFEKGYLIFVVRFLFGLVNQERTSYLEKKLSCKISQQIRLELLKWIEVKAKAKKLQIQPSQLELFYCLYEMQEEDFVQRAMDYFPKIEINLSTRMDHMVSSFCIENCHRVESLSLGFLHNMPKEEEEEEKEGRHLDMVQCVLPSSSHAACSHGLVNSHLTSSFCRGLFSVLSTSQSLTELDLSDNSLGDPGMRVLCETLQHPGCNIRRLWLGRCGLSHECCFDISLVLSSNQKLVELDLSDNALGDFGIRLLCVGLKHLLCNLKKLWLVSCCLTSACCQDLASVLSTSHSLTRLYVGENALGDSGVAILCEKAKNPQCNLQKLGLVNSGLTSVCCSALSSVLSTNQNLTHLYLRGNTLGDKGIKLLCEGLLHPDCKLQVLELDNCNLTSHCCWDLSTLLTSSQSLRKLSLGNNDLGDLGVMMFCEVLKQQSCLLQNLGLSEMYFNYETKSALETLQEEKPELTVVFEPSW

For the molecule `Cc1cc(C#N)cc(O)c1-c1cnc2oc(N[C@@H]3CCCN(CCO)C3)nc2n1` [Example 1, 3-Hydroxy-4-[2-[[(3R)-1-(2-hydroxyethyl)-3-piperidyl]amino]oxazolo[4,5-b]pyrazin-5-yl]-5-methyl-benzonitrile;2,2,2-trifluoroacetic Acid], the IC50 on NLRP3 [1] turned out to be 3.3 nM; against NLRP3 [2] it was 24.2 nM.

For `CCN1C[C@@H](O)C[C@@H](Nc2nc3nc(-c4c(C)cc(C#N)cc4O)cnc3o2)C1` [Example 2, 4-[2-[[(3R,5S)-1-Ethyl-5-hydroxy-3-piperidyl]amino]oxazolo[4,5-b]pyrazin-5-yl]-3-hydroxy-5-methyl-benzonitrile;2,2,2-trifluoroacetic Acid], the IC50 against NLRP3 [1] stood at 4.3 nM; at NLRP3 [2], 19.6 nM.

Regarding `COCc1cc(C#N)cc(O)c1-c1ccc2oc(N[C@@H]3CCCN(CCO)C3)nc2n1` [Example 3, 3-Hydroxy-4-[2-[[(3R)-1-(2-hydroxyethyl)-3-piperidyl]amino]oxazolo[4,5-b]pyridin-5-yl]-5-(methoxymethyl)benzonitrile], the IC50 on NLRP3 [1] stood at 27.9 nM; at NLRP3 [2] it was 35.2 nM.

On to `Cc1cc(C#N)cc(O)c1-c1ccc2oc(N[C@@H]3CCCN(CCc4ncco4)C3)nc2n1` [Example 4, 3-Hydroxy-5-methyl-4-[2-[[(3R)-1-(2-oxazol-2-ylethyl)-3-piperidyl]amino]oxazolo[4,5-b]pyridin-5-yl]benzonitrile], for which the results for the IC50 at NLRP3 [1] and on NLRP3 [2] were 26.1 nM and 192 nM, respectively.

Take `Cc1cc(C(F)(F)F)cc(O)c1-c1ccc2oc(N[C@@H]3C[C@H](O)CN(CCCC(=O)O)C3)nc2n1` [Example 5, 4-[(3S,5R)-3-Hydroxy-5-[[5-[2-hydroxy-6-methyl-4-(trifluoromethyl)phenyl]oxazolo[4,5-b]pyridin-2-yl]amino]-1-piperidyl]butanoic Acid]: the IC50 came out at 51 nM at NLRP3 [1] and 432 nM at NLRP3 [2].

Turning to `Cc1cc(C(F)(F)F)cc(O)c1-c1ccc2oc(N[C@@H]3C[C@H](O)CN(CCO)C3)nc2n1` [Example 6, (3S,5R)-1-(2-Hydroxyethyl)-5-[[5-[2-hydroxy-6-methyl-4-(trifluoromethyl)phenyl]oxazolo[4,5-b]pyridin-2-yl]amino]piperidin-3-ol], the IC50 is 12 nM at NLRP3 [1] and 95 nM on NLRP3 [2].

As for `Cc1cc(C#N)cc(O)c1-c1cnc2oc(N[C@@H]3C[C@H](O)CN(C)C3)nc2n1` [Example 7, 3-Hydroxy-4-[2-[[(3R,5S)-5-hydroxy-1-methyl-3-piperidyl]amino]oxazolo[4,5-b]pyrazin-5-yl]-5-methyl-benzonitrile;2,2,2-trifluoroacetic Acid], the IC50 was 10 nM at NLRP3 [1] and 17 nM at NLRP3 [2].

Consider `COc1cc(-c2c(C)cc(C#N)cc2O)nc2nc(N[C@@H]3CCCN(CCO)C3)oc12` [Example 8, 3-Hydroxy-4-[2-[[(3R)-1-(2-hydroxyethyl)-3-piperidyl]amino]-7-methoxy-oxazolo[4,5-b]pyridin-5-yl]-5-methyl-benzonitrile;2,2,2-trifluoroacetic Acid], for which the IC50 against NLRP3 [1] was found to be 11 nM; on NLRP3 [2], 28 nM.

Turning to `Cc1cc(C#N)cc(O)c1-c1ccc2oc(N[C@H]3CNC[C@@H](O)C3)nc2n1` [Example 9, 3-Hydroxy-4-[2-[[(3R,5S)-5-hydroxy-3-piperidyl]amino]oxazolo[4,5-b]pyridin-5-yl]-5-methyl-benzonitrile], the results for the IC50 at NLRP3 [1] and at NLRP3 [2] were 45 nM and 84 nM, respectively.

For the molecule `Cc1cc(C#N)cc(O)c1-c1cnc2oc(N[C@@H]3CCCN(CCO)C3)nc2n1` [Example 10, 3-Hydroxy-4-[2-[[(3R)-1-(2-hydroxyethyl)-3-piperidyl]amino]oxazolo[4,5-b]pyrazin-5-yl]-5-methyl-benzonitrile], the IC50 on NLRP3 [1] came out at 5 nM; against NLRP3 [2] it was 29 nM.

On to `COCc1cc2c(c(O)c1-c1cnc3oc(N[C@@H]4CCCN(CCO)C4)nc3n1)CCO2` [Example 11, 5-[2-[[(3R)-1-(2-Hydroxyethyl)-3-piperidyl]amino]oxazolo[4,5-b]pyrazin-5-yl]-6-(methoxymethyl)-2,3-dihydrobenzofuran-4-ol], for which the concentration for half-maximal inhibition (IC50) at NLRP3 [1] worked out at 4 nM; against NLRP3 [2] it was 8 nM.

Turning to `Cc1cc2c(c(O)c1-c1cnc3oc(N[C@@H]4CCCN(CCO)C4)nc3n1)CCO2` [Example 13, 5-[2-[[(3R)-1-(2-Hydroxyethyl)-3-piperidyl]amino]oxazolo[4,5-b]pyrazin-5-yl]-6-methyl-2,3-dihydrobenzofuran-4-ol], the IC50 against NLRP3 [1] was determined as 0.8 nM; against NLRP3 [2], 19 nM.

As for `COc1cc(-c2c(C)cc(C#N)cc2O)nc2nc(N[C@@H]3CCCN(CCO)C3)oc12` [Example 16, 3-Hydroxy-4-[2-[[(3R)-1-(2-hydroxyethyl)-3-piperidyl]amino]-7-methoxy-oxazolo[4,5-b]pyridin-5-yl]-5-methyl-benzonitrile], the figures for the IC50 on NLRP3 [1] and against NLRP3 [2] were 8 nM and 22 nM, respectively.

Consider `CCN1C[C@@H](O)C[C@@H](Nc2nc3nc(-c4c(C)cc(C#N)cc4O)cnc3o2)C1` [Example 17, 4-[2-[[(3R,5S)-1-Ethyl-5-hydroxy-3-piperidyl]amino]oxazolo[4,5-b]pyrazin-5-yl]-3-hydroxy-5-methyl-benzonitrile], for which the values for the IC50 against NLRP3 [1] and against NLRP3 [2] were 3 nM and 18 nM, respectively.

Consider `COc1cc(-c2c(C)cc3c(c2O)CCC3)nc2nc(N[C@@H]3CCCN(CCO)C3)oc12` [Example 19, 5-[2-[[(3R)-1-(2-Hydroxyethyl)-3-piperidyl]amino]-7-methoxy-oxazolo[4,5-b]pyridin-5-yl]-6-methyl-indan-4-ol], for which, at NLRP3 [1], half-maximal inhibition (IC50) was put at 4 nM.

With `COCc1cc(C#N)cc(O)c1-c1cc(OC)c2oc(N[C@@H]3CCCN(CCO)C3)nc2n1` [Example 20, 3-Hydroxy-4-[2-[[(3R)-1-(2-hydroxyethyl)-3-piperidyl]amino]-7-methoxy-oxazolo[4,5-b]pyridin-5-yl]-5-(methoxymethyl)benzonitrile], the 50% inhibitory concentration (IC50) at NLRP3 [1] came to 75 nM; on NLRP3 [2], 68 nM.

For `COCc1cc2c(c(O)c1-c1cc(OC)c3oc(N[C@@H]4CCCN(CCO)C4)nc3n1)CCO2` [Example 21, 5-[2-[[(3R)-1-(2-Hydroxyethyl)-3-piperidyl]amino]-7-methoxy-oxazolo[4,5-b]pyridin-5-yl]-6-(methoxymethyl)-2,3-dihydrobenzofuran-4-ol], on NLRP3 [1], it took 9 nM to reach half-maximal inhibition (IC50).

As for `COc1cc(-c2c(C)cc3c(c2O)CCO3)nc2nc(N[C@@H]3CCCN(CCO)C3)oc12` [Example 22, 5-[2-[[(3R)-1-(2-Hydroxyethyl)-3-piperidyl]amino]-7-methoxy-oxazolo[4,5-b]pyridin-5-yl]-6-methyl-2,3-dihydrobenzofuran-4-ol], the IC50 against NLRP3 [1] was 5 nM; on NLRP3 [2], 39 nM.

Consider `CCN1C[C@@H](O)C[C@@H](Nc2nc3nc(-c4c(O)cc(C#N)cc4COC)cnc3o2)C1` [Example 23, 4-[2-[[(3R,5S)-1-Ethyl-5-hydroxy-3-piperidyl]amino]oxazolo[4,5-b]pyrazin-5-yl]-3-hydroxy-5-(methoxymethyl)benzonitrile;2,2,2-trifluoroacetic Acid], for which the results for the 50% inhibitory concentration (IC50) on NLRP3 [1] and on NLRP3 [2] were 44 nM and 34 nM, respectively.
